These results are taken from patent publication US8530490B2, “Uracil compound or salt thereof having human deoxyuridine triphosphatase inhibitory activity” (Taiho Pharmaceutical Co., Ltd., priority 2008, dated 2013).

The experiment deals with human dUTPase (Homo sapiens (Human), UniProt P33316). Kind of experiment: Human dUTPase inhibitory effect: production of [5-3H]dUMP from [5-3H]dUTP, measured by HPLC with flow scintillation. Format: biochemical. Conditions: [5-3H]dUMP production from [5-3H]dUTP, 37° C., 15 minutes. Summed up:
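E. coli-expressed purified human dUTPase reacted with 1 μM dUTP stock containing [5-3H]dUTP in Tris pH 7.4, MgCl2, 2-mercaptoethanol and albumin, 15 min at 37° C; stopped by 1 min at 100° C. [5-3H]dUMP formed was separated by reversed-phase ion-pair HPLC and quantified by flow scintillation versus water control.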

human dUTPase, sequence (P33316 94-252): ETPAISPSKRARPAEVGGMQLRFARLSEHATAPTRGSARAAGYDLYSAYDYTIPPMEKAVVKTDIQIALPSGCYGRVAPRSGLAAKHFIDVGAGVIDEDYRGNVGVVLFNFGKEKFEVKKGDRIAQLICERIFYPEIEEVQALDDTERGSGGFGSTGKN

In turn, `CC[C@@H](NS(=O)(=O)c1ccc(Cn2ccc(=O)[nH]c2=O)cc1)c1ccc(F)c(OCC2CC2)c1` [Example 97, (R)—N-(1-(3-(cyclopropylmethoxy)-4-fluorophenyl)propyl)-4-((2,4-dioxo-3,4-dihydropyrimidin-1(2H)-yl)methyl)benzenesulfonamide] showed an IC50 of 580 nM.
`C[C@@H](NS(=O)(=O)CCCn1ccc(=O)[nH]c1=O)c1ccc(F)c(OCC2CC2)c1` [Example 98, (R)—N-(1-(3-(cyclopropylmethoxy)-4-fluorophenyl)ethyl)-3-(2,4-dioxo-3,4-dihydropyrimidin-1(2H)-yl)propane-1-sulfonamide] yielded an IC50 of 660 nM.
To `CC[C@@](O)(CNS(=O)(=O)CCCn1ccc(=O)[nH]c1=O)c1ccc(F)c(OC2CCCC2)c1` [Example 99, (S)—N-(2-(3-(cyclopentyloxy)-4-fluorophenyl)-2-hydroxybutyl)-3-(2,4-dioxo-3,4-dihydroxypyrimidin-1(2H)-yl)propane-1-sulfonamide] belongs 1810 nM.
As for `C[C@@H](NS(=O)(=O)CC/C=C/Cn1ccc(=O)[nH]c1=O)c1ccc(F)c(OCC2CC2)c1` [Example 100, (R,E)-N-(1-(3-(cyclopropylmethoxy)-4-fluorophenyl)ethyl)-5-(2,4-dioxo-3,4-dihydropyrimidin-1(2H)-yl)pent-3-ene-1-sulfonamide], the IC50 was found to be 40 nM.
The result for `C[C@@H](NS(=O)(=O)CCCCCn1ccc(=O)[nH]c1=O)c1ccc(F)c(OCC2CC2)c1` [Example 101, (R)—N-(1-(3-(cyclopropylmethoxy)-4-fluorophenyl)ethyl)-5-(2,4-dioxo-3,4-dihydropyrimidin-1(2H)-yl)pentane-1-sulfonamide] reads 70 nM; that for `O=c1ccn(CCCCCS(=O)(=O)NCc2cccc(OCC3CC3)c2)c(=O)[nH]1` [Example 103, N-(3-(cyclopropylmethoxy)benzyl)-5-(2,4-dioxo-3,4-dihydropyrimidin-1(2H)-yl)pentane-1-sulfonamide], 520 nM.
To `C[C@@H](NS(=O)(=O)CCCn1ccc(=O)[nH]c1=O)c1cccc(OC2CCCC2)c1` [Example 104, (R)—N-(1-(3-(cyclopentyloxy)phenyl)ethyl)-3-(2,4-dioxo-3,4-dihydropyrimidin-1(2H)-yl)propane-1-sulfonamide] belongs 1460 nM.
The result for `C[C@@H](NS(=O)(=O)CC/C=C/Cn1ccc(=O)[nH]c1=O)c1cccc(OC2CCCC2)c1` [Example 105, (R,E)-N-(1-(3-(cyclopentyloxy)phenyl)ethyl)-5-(2,4-dioxo-3,4-dihydropyrimidin-1(2H)-yl)pent-3-ene-1-sulfonamide] reads 170 nM; that for `C[C@@H](NS(=O)(=O)CCCCCn1ccc(=O)[nH]c1=O)c1cccc(OC2CCCC2)c1` [Example 106, (R)—N-(1-(3-(cyclopentyloxy)phenyl)ethyl)-5-(2,4-dioxo-3,4-dihydropyrimidin-1(2H)-yl)pentane-1-sulfonamide], 120 nM.
In turn, `C[C@@H](NS(=O)(=O)CCCn1ccc(=O)[nH]c1=O)c1cccc(OCC(F)F)c1` [Example 107, (R)—N-(1-(3-(2,2-difluoroethoxy)phenyl)ethyl)-3-(2,4-dioxo-3,4-dihydropyrimidin-1(2H)-yl)propane-1-sulfonamide] registered an IC50 of 1720 nM.
To `C[C@@H](NS(=O)(=O)CCCn1ccc(=O)[nH]c1=O)c1cccc(OCC2CC2)c1` [Example 108, (R)—N-(1-(3-(cyclopropylmethoxy)phenyl)ethyl)-3-(2,4-dioxo-3,4-dihydropyrimidin-1(2H)-yl)propane-1-sulfonamide] belongs 1710 nM; to `C[C@@H](NS(=O)(=O)CCCCCn1ccc(=O)[nH]c1=O)c1cccc(OCC2CC2)c1` [Example 109, (R)—N-(1-(3-(cyclopropylmethoxy)phenyl)ethyl)-5-(2,4-dioxo-3,4-dihydropyrimidin-1(2H)-yl)pentane-1-sulfonamide], 120 nM.
To `C[C@@H](NS(=O)(=O)CC/C=C/Cn1ccc(=O)[nH]c1=O)c1cccc(OCC2CC2)c1` [Example 110, (R,E)-N-(1-(3-(cyclopropylmethoxy)phenyl)ethyl)-5-(2,4-dioxo-3,4-dihydropyrimidin-1(2H)-yl)pent-3-ene-1-sulfonamide] belongs 50 nM.
`O=c1ccn(CCCS(=O)(=O)NC(c2ccccc2)c2ccccc2)c(=O)[nH]1` [Example 111, N-benzhydryl-3-(2,4-dioxo-3,4-dihydropyrimidin-1(2H)-yl)propane-1-sulfonamide]: the IC50 was 8270 nM.
In turn, `O=c1ccn(CCCS(=O)(=O)NC(c2ccccc2)c2cccc(OCC3CC3)c2)c(=O)[nH]1` (centres unmarked) [Example 112, N-((3-(cyclopropylmethoxy)phenyl)(phenyl)methyl)-3-(2,4-dioxo-3,4-dihydropyrimidin-1(2H)-yl)propane-1-sulfonamide] gave an IC50 of 2230 nM.
`O=c1ccn(C/C=C/CCS(=O)(=O)NCc2cccc(OCC3CC3)c2)c(=O)[nH]1` [Example 113, (E)-N-(3-(cyclopropylmethoxy)benzyl)-5-(2,4-dioxo-3,4-dihydropyrimidin-1(2H)-yl)pent-3-ene-1-sulfonamide] came in with an IC50 of 410 nM.
To `O=c1ccn(CCCS(=O)(=O)N[C@H](c2ccc(F)cc2)c2cccc(OCC3CC3)c2)c(=O)[nH]1` [Example 114, (R)—N-((3-(cyclopropylmethoxy)phenyl)(4-fluorophenyl)methyl)-3-(2,4-dioxo-3,4-dihydropyrimidin-1(2H)-yl)propane-1-sulfonamide] belongs 580 nM.
As for `CC[C@@H](NS(=O)(=O)CCCn1ccc(=O)[nH]c1=O)c1ccc(F)c(OCC2CC2)c1` [Example 115, (R)—N-(1-(3-(cyclopropylmethoxy)-4-fluorophenyl)propyl)-3-(2,4-dioxo-3,4-dihydropyrimidin-1(2H)-yl)propane-1-sulfonamide], it took 250 nM to reach half-maximal inhibition (IC50).
Compound `O=c1ccn(CCCS(=O)(=O)N[C@H](c2ccc(F)cc2)c2ccc(F)c(OCC3CC3)c2)c(=O)[nH]1` [Example 116, (R)—N-((3-(cyclopropylmethoxy)-4-fluorophenyl)(4-fluorophenyl)methyl)-3-(2,4-dioxo-3,4-dihydropyrimidin-1(2H)-yl)propane-1-sulfonamide] came in with a concentration for half-maximal inhibition (IC50) of 350 nM.
The result for `CC[C@@H](NS(=O)(=O)CCCn1ccc(=O)[nH]c1=O)c1ccccc1` [Example 118, (R)-3-(2,4-dioxo-3,4-dihydropyrimidin-1(2H)-yl)-N-(1-phenylpropyl)propane-1-sulfonamide] reads 9800 nM; that for `O=c1ccn(CC2CCN(S(=O)(=O)NCc3cccc(OCC4CC4)c3)CC2)c(=O)[nH]1` [Example 128, N-(3-(cyclopropylmethoxy)benzyl)-4-((2,4-dioxo-3,4-dihydropyrimidin-1(2H)-yl)methyl)piperidine-1-sulfonamide], 270 nM; that for `O=c1ccn(CCCS(=O)(=O)N2CCC[C@@H]2C(O)(c2ccccc2)c2ccccc2)c(=O)[nH]1` [Example 130, (R)-1-(3-(2-(hydroxydiphenylmethyl)pyrrolidin-1-ylsulfonyl)propyl)pyrimidine-2,4(1H, 3H)-dione], 480 nM.
To `O=c1ccn(CCCS(=O)(=O)N2CCC[C@@H]2C(O)(c2ccc(F)cc2)c2ccc(F)cc2)c(=O)[nH]1` [Example 131, (R)-1-(3-(2-(bis(4-fluorophenyl)(hydroxy)methyl)pyrrolidin-1-ylsulfonyl)propyl)pyrimidine-2,4(1H, 3H)-dione] belongs 400 nM.
